pIC50: −log10 of the molar value.
Target: T1, human Cot catalytic domain (30-397 amino acids) (Homo sapiens, UniProt P41279)
T1 construct: Purified recombinant human Cot catalytic domain (30-397 amino acids) was purchased from Cama Biosciences; purchased Cama Biosciences (so in the source)
Assay: High Throughput Cot Biochemical Assay (KinEASE TR-FRET)
Details: Cot KinEASE TR-FRET, 400 μM ATP; read-out: IC50 HTRF
Method: Example 61: High Throughput Cot Biochemical Assay
In this assay, Cot-catalyzes the phosphorylation of a XL665-labeled peptide substrate. Europium conjugated phospho-tyrosine specific antibody binds the resulting phosphorylated peptide. […] Purified recombinant human Cot catalytic domain (30-397 amino acids) was purchased from Cama Biosciences. […] The standard 5 μL reaction mixture contained 400 μM ATP, 1 μM STK3 peptide, 5 nM of Cot in reaction buffer (10 mM MOPS, pH 7.0, 0.02% NaN3, 0.5 mg/mL BSA, 10 mM MgOAc, 1 mM DTT, 0.025% NP-40, 1.5% glycerol) and 0.1% DMSO.

T1 sequence (P41279 30-397): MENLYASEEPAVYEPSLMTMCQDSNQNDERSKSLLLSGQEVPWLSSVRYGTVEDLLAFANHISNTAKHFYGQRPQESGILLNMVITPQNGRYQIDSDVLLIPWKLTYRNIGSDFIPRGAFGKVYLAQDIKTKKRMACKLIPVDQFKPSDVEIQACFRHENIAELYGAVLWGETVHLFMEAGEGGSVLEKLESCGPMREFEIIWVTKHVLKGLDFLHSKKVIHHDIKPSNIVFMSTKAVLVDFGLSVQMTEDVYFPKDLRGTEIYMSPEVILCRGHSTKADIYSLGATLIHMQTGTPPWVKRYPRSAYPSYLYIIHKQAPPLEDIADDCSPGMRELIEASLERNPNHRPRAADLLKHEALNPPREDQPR

Row | Compound | pIC50
1 | N#Cc1cnc2c(Cl)cc(NC(c3ccc(F)cc3)c3cocn3)cc2c1Nc1ccc(F)c(Cl)c1 (stereo not drawn) [Example 807, 8-chloro-4-((3-chloro-4-fluorophenyl)amino)-6-(((4-fluorophenyl)(oxazol-4-yl)methyl)amino)quinoline-3-carbonitrile] | 6.36
2 | CC(C)(CC(=O)O)n1cc([C@@H](Nc2cc(Cl)c3ncc(C#N)c(Nc4ccc(F)c(Cl)c4)c3c2)c2ccc(F)cc2)nn1 [Example 812, (S)-3-(4-(((8-chloro-4-((3-chloro-4-fluorophenyl)amino)-3-cyanoquinolin-6-yl)amino)(4-fluorophenyl)methyl)-1H-1,2,3-triazol-1-yl)-3-methylbutanoic acid] | 6.10
3 | CN(C)C(=O)N1CCC[C@@H]1Cn1cc(C(Nc2cc(Cl)c3ncc(C#N)c(Nc4ccc(F)c(Cl)c4)c3c2)c2ccc(F)cc2)nn1 (stereo partly drawn) [Example 818, (2R)-2-((4-(((8-chloro-4-((3-chloro-4-fluorophenyl)amino)-3-cyanoquinolin-6-yl)amino)(4-fluorophenyl)methyl)-1H-1,2,3-triazol-1-yl)methyl)-N,N-dimethylpyrrolidine-1-carboxamide] | 6.35
4 | N#Cc1cnc2c(Cl)cc(N[C@@H](c3ccc(F)cc3)c3cn(C4CCN(C5CC(F)(F)C5)CC4)nn3)cc2c1Nc1ccc(F)c(Cl)c1 [Example 822, (S)-8-chloro-4-((3-chloro-4-fluorophenyl)amino)-6-(((1-(1-(3,3-difluorocyclobutyl)piperidin-4-yl)-1H-1,2,3-triazol-4-yl)(4-fluorophenyl)methyl)amino) quinoline-3-carbonitrile] | 7.05
5 | N#Cc1cnc2c(Cl)cc(N[C@@H](c3ccc(F)cc3)c3cn(C4CCN(CC(F)F)CC4)nn3)cc2c1Nc1ccc(F)c(Cl)c1 [Example 823, (S)-8-chloro-4-((3-chloro-4-fluorophenyl)amino)-6-(((1-(1-(2,2-difluoroethyl)piperidin-4-yl)-1H-1,2,3-triazol-4-yl)(4-fluorophenyl)methyl)amino) quinoline-3-carbonitrile] | 7.01
6 | CC(C)(C)OC(=O)N1CCC(n2cc([C@@H](Nc3cc(Cl)c4ncc(C#N)c(Nc5ccc(F)c(Cl)c5)c4c3)c3ccc(F)cc3)nn2)CC1 [Example 830, tert-butyl (S)-4-(4-(((8-chloro-4-((3-chloro-4-fluorophenyl)amino)-3-cyanoquinolin-6-yl)amino)(4-fluorophenyl)methyl)-1H-1,2,3-triazol-1-yl)piperidine-1-carboxylate] | 6.44
7 | N#Cc1cnc2ccc(NC(c3ccc(F)cc3)c3cn(C4CCN(C(=O)OCc5ccccc5)CC4)nn3)cc2c1Nc1ccc(F)c(Cl)c1 (stereo not drawn) [Example 834, benzyl 4-(4-(((4-((3-chloro-4-fluorophenyl)amino)-3-cyanoquinolin-6-yl)amino)(4-fluorophenyl)methyl)-1H-1,2,3-triazol-1-yl)piperidine-1-carboxylate] | 6.12
8 | CC1(C)CNCCC1n1cc(C(Nc2cc(Cl)c3ncc(C#N)c(Nc4ccc(F)c(Cl)c4)c3c2)c2ccc(F)cc2)nn1 (stereo not drawn) [Example 840, 8-chloro-4-((3-chloro-4-fluorophenyl)amino)-6-(((1-(3,3-dimethylpiperidin-4-yl)-1H-1,2,3-triazol-4-yl)(4-fluorophenyl)methyl)amino) quinoline-3-carbonitrile] | 7.08
9 | N#Cc1cnc2c(Cl)cc(NC(c3ccc(F)cc3)c3cn(C4CCOCC4)nn3)cc2c1Nc1ccc(F)c(Cl)c1 (stereo not drawn) [Example 843, 8-chloro-4-((3-chloro-4-fluorophenyl)amino)-6-(((4-fluorophenyl)(1-(tetrahydro-2H-pyran-4-yl)-1H-1,2,3-triazol-4-yl)methyl)amino)quinoline-3-carbonitrile] | 7.24
10 | CC(=O)N1CCC(n2cc(C(Nc3cc(Cl)c4ncc(C#N)c(Nc5ccc(F)c(Cl)c5)c4c3)c3ccc(F)cc3)nn2)CC1 (stereo not drawn) [Example 844, 6-(((1-(1-acetylpiperidin-4-yl)-1H-1,2,3-triazol-4-yl)(4-fluorophenyl)methyl)amino)-8-chloro-4-((3-chloro-4-fluorophenyl)amino)quinoline-3-carbonitrile] | 7.32
11 | CS(=O)(=O)N1CCC(n2cc(C(Nc3cc(Cl)c4ncc(C#N)c(Nc5ccc(F)c(Cl)c5)c4c3)c3ccc(F)cc3)nn2)CC1 (stereo not drawn) [Example 845, 8-chloro-4-((3-chloro-4-fluorophenyl)amino)-6-(((4-fluorophenyl)(1-(1-(methylsulfonyl)piperidin-4-yl)-1H-1,2,3-triazol-4-yl)methyl)amino)quinoline-3-carbonitrile] | 7.00
12 | Cn1ccc(C(Nc2cc(Cl)c3ncc(C#N)c(Nc4ccc(F)c(Cl)c4)c3c2)c2ccc(F)cc2)n1 (stereo not drawn) [Example 846, 8-chloro-4-((3-chloro-4-fluorophenyl)amino)-6-(((4-fluorophenyl)(1-methy-1-1H-pyrazol-3-yl)methyl)amino)quinoline-3-carbonitrile] | < 5.00

Stronger by pIC50, values ahead:

Row | pIC50 | Compound
13 | 7.47 | CC(C)(C)n1cc([C@@H](Nc2cc(Cl)c3ncc(C#N)c(Nc4ccc(F)c(Cl)c4)c3c2)c2ccc(F)cc2)nn1 [Example 811, (S)-6-(((1-(tert-butyl)-1H-1,2,3-triazol-4-yl)(4-fluorophenyl)methyl)amino)-8-chloro-4-((3-chloro-4-fluorophenyl)amino)quinoline-3-carbonitrile]
14 | 7.47 | CCN1CCC(n2cc(C(Nc3ccc4ncc(C#N)c(Nc5ccc(F)c(Cl)c5)c4c3)c3ccc(F)cc3)nn2)CC1 (stereo not drawn) [Example 827, 4-((3-chloro-4-fluorophenyl)amino)-6-(((1-(1-ethylpiperidin-4-yl)-1H-1,2,3-triazol-4-yl)(4-fluorophenyl)methyl)amino) quinoline-3-carbonitrile]
15 | 7.49 | CCN1CCC(n2cc(C(Nc3cc(Cl)c4ncc(C#N)c(Nc5ccc(F)c(Cl)c5)c4c3)c3ccc(F)cc3)nn2)CC1(C)C (stereo not drawn) [Example 838, 8-chloro-4-((3-chloro-4-fluorophenyl)amino)-6-(((1-(1-ethyl-2,2-dimethylpiperidin-4-yl)-1H-1,2,3-triazol-4-yl)(4-fluorophenyl)methyl)amino) quinoline-3-carbonitrile]
16 | 7.62 | CC1(C)CC(n2cc(C(Nc3cc(Cl)c4ncc(C#N)c(Nc5ccc(F)c(Cl)c5)c4c3)c3ccc(F)cc3)nn2)CCN1 (stereo not drawn) [Example 839, 8-chloro-4-((3-chloro-4-fluorophenyl)amino)-6-(((1-(2,2-dimethylpiperidin-4-yl)-1H-1,2,3-triazol-4-yl)(4-fluorophenyl)methyl)amino) quinoline-3-carbonitrile]
17 | 7.64 | CCN1CCC(n2cc([C@@H](Nc3cc(Cl)c4ncc(C#N)c(Nc5ccc(F)c(Cl)c5)c4c3)c3ccc4ccccc4c3)nn2)CC1 [Example 820, (S)-8-chloro-4-((3-chloro-4-fluorophenyl)amino)-6-(((1-(1-ethylpiperidin-4-yl)-1H-1,2,3-triazol-4-yl)(naphthalen-2-yl)methyl)amino)quinoline-3-carbonitrile]
18 | 7.68 | N#Cc1cnc2c(Cl)cc(N[C@@H](c3ccc(F)cc3)c3cn(C4CCN(C5CC5)CC4)nn3)cc2c1Nc1ccc(F)c(Cl)c1 [Example 821, (S)-8-chloro-4-((3-chloro-4-fluorophenyl)amino)-6-(((1-(1-cyclopropylpiperidin-4-yl)-1H-1,2,3-triazol-4-yl)(4-fluorophenyl)methyl)amino) quinoline-3-carbonitrile]
19 | 7.92 | N#Cc1cnc2c(Cl)cc(N[C@@H](c3ccc(F)cc3)c3cn(C4COC4)nn3)cc2c1Nc1ccc(F)c(Cl)c1 [Example 810, (S)-8-chloro-4-((3-chloro-4-fluorophenyl)amino)-6-(((4-fluorophenyl)(1-(oxetan-3-yl)-1H-1,2,3-triazol-4-yl)methyl)amino)quinoline-3-carbonitrile]
20 | 8.05 | CCN1CCC(n2cc(C(Nc3ccc4ncc(C#N)c(Nc5ccc(F)c(Cl)c5)c4c3)c3ccc(F)cc3)nn2)CC1 (stereo not drawn) [Example 832, 4-((3-chloro-4-fluorophenyl)amino)-6-(((1-(1-ethylpiperidin-4-yl)-1H-1,2,3-triazol-4-yl)(4-fluorophenyl)methyl)amino) quinoline-3-carbonitrile]
21 | 8.15 | N#Cc1cnc2c(Cl)cc(NC(c3ccc(F)cc3)c3cn(C[C@H]4CCCN4)nn3)cc2c1Nc1ccc(F)c(Cl)c1 (stereo partly drawn) [Example 817, 8-chloro-4-((3-chloro-4-fluorophenyl)amino)-6-(((4-fluorophenyl)(1-(((R)-pyrrolidin-2-yl)methyl)-1H-1,2,3-triazol-4-yl)methyl)amino)quinoline-3-carbonitrile]
22 | 8.15 | CCN1CCC(n2cc(C(Nc3cc(Br)c4ncc(C#N)c(Nc5ccc(F)c(Cl)c5)c4c3)c3ccc(F)cc3)nn2)CC1 (stereo not drawn) [Example 833, 8-bromo-4-((3-chloro-4-fluorophenyl)amino)-6-(((1-(1-ethylpiperidin-4-yl)-1H-1,2,3-triazol-4-yl)(4-fluorophenyl)methyl)amino) quinoline-3-carbonitrile]
23 | 8.22 | CN1CCC(n2cc([C@@H](Nc3cc(Cl)c4ncc(C#N)c(Nc5ccc(F)c(Cl)c5)c4c3)c3ccc(F)cc3)nn2)CC1 [Example 826, (S)-8-chloro-4-((3-chloro-4-fluorophenyl)amino)-6-(((4-fluorophenyl)(1-(1-methylpiperidin-4-yl)-1H-1,2,3-triazol-4-yl)methyl)amino)quinoline-3-carbonitrile]
24 | 8.22 | N#Cc1cnc2c(Cl)cc(N[C@@H](c3ccc(F)cc3)c3cn(C4CN5CCC4CC5)nn3)cc2c1Nc1ccc(F)c(Cl)c1 (stereo partly drawn) [Example 829, 8-chloro-4-((3-chloro-4-fluorophenyl)amino)-6-(((1S)-(4-fluorophenyl)(1-(quinuclidin-3-yl)-1H-1,2,3-triazol-4-yl)methyl)amino)quinoline-3-carbonitrile]

— US10316017B2, “COT modulators and methods of use thereof” (Gilead Sciences, Inc., priority 2015, dated 2019)
